# Measured values from patent US11440880B2, “Thalidomide analogs and methods of use” (The USA, as represented by the Secretary, Department of …, priority 2015, dated 2022).
# Key:
# Type in all cases: cell-based, mouse
# Set-up in all cases: key: NS=not significant; a “+” sign=anti-inflammatory or increased cell numbers; a “−” sign=cell toxicity or pro-inflammatory
# TNF-α protein = TNF-α protein level (ELISA) in LPS-challenged RAW 264.7 cells; conditions: LPS 30 or 60 ng/mL, 24 h
# Method: (§1) Nitrite levels in the culture media were measured by use of the Griess Reagent System (Promega, Madison, Wis.), following the manufacturer's protocol. The O.D. of unknown samples was read at 520 nm λ, compared to a sodium nitrite standard curve (1.5 μM to 100 μM) and nitrite measured media concentrations expressed as μM units. As the lowest nitrite concentration on the Griess Reagent System standard curve was 1.5 μM, this was chosen as the effective cutoff for defining measurable nitrite concentrations. TNF-α protein levels were measured by use of an ELISA specific for mouse TNF-α protein (BioLegend, San Diego, Calif.) and are expressed as a % change from their appropriate control or as pg/ml.
# (§2) RAW 264.7 cells obtained from ATCC (Manassas, Va., USA) were grown in DMEM media supplemented with 10% FCS, penicillin 100 μg/ml and streptomycin 100 μg/ml, and maintained at 37° C. and 5% CO2. Cells were seeded in 24 well plates and, 24 hours later, were utilized in studies. One hour prior to the initiation of any study, the seeding media was replaced with fresh media (1 mL), and the cells were allowed to equilibrate at 37° C. and 5% CO2.
# (§3) RAW 264.7 cells were challenged with LPS (Sigma, St Louis, Mo.: serotype 055:B5) from at a final concentration of 30 or 60 ng/mL. This concentration of LPS in RAW 264.7 cells induces a sub-maximal rise in both TNF-alpha and nitrite levels without a loss in cellular viability. This sub-maximal rise is useful for assessing whether the addition of an experimental drug can either lower or further raise levels of TNF-α and nitrite. Twenty four hours following the addition of LPS, conditioned media was harvested and analyzed for quantification of secreted TNF-α protein and nitrite levels. Fresh media was replaced into the wells and cell viability was then assessed.
# (§4) Thalidomide and analogs were prepared in tissue culture grade DMSO (Sigma). RAW 264.7 cells were pretreated with thalidomide, analogues or vehicle one hour prior to a challenge with LPS. The effects of various concentrations of thalidomide analogues were assessed. All compounds were synthesized to a chemical purity of >99.5%, as assessed by chemical characterization by a combination of 1H NMR, 13C NMR and GC/MS analyses (Bruker AC-300 spectrometer, together with elemental analyses (Atlantic Microlab, Inc., Norcross, Ga.).
# RAW 264.7 cells = assay: Cell viability (CellTiter 96 AQueous One) of LPS-challenged RAW 264.7 cells
# Method: The CellTiter 96® AQueous One Solution Cell Proliferation Assay (Promega, Madison, Wis.) is routinely used as an assay of cell proliferation, and was used according to the manufacturer's recommendations. Changes in cellular health status are determined by use of indirect measures related to the formation of a colored tetrazolium dye product that can be measured spectrophotometrically at 490 nm λ. […] Optical densities (expressed as O.D.s) were measured after various incubations.
# as §2, §3, §4
# [1] = test system: nitrite levels in the culture media; assay: Nitrite level (Griess Reagent System) in LPS-challenged RAW 264.7 cells; conditions: LPS 30 or 60 ng/mL, 24 h
# Method: as §1, §2, §3, §4
Compound,TNF-α (TNF-α protein; 3 μM),TNF-α (TNF-α protein; 10 μM),TNF-α (TNF-α protein; 30 μM),Viability (RAW 264.7 cells; 3 μM),Viability (RAW 264.7 cells; 10 μM),Viability (RAW 264.7 cells; 30 μM),TNF-α (TNF-α protein; 1 μM),Viability (RAW 264.7 cells; 1 μM),Nitrite ([1]; 1 μM),Nitrite ([1]; 10 μM),Nitrite ([1]; 30 μM)
Nc1ccc2c(c1)C(=O)N(C1=CNC(=O)CC1)C2 [Compound 43],NS,NS,NS,NS,NS,NS,,,,,
Nc1ccc2c(c1)C(=O)N(C1CC=CNC1=O)C2 (centres unmarked) [Compound 44],NS,NS,+,NS,NS,NS,,,,,
O=C1CCCC(=O)N1CN1C(=O)CCC(N2Cc3ccccc3C2=O)C1=O (centres unmarked) [Compound 48],,+,+,,NS,NS,+,NS,,,
CC(N1Cc2ccccc2C1=O)C12CC3CC(CC(C3)C1)C2 (centres unmarked) [Compound 71],,NS,+,,NS,−,NS,NS,NS,NS,+
S=C1c2ccccc2CN1C12CC3CC(CC1C3)C2 [Compound 75],,+,+,,NS,NS,NS,NS,NS,NS,NS
O=C1c2cccc([N+](=O)[O-])c2CN1CC12CC3CC(CC(C3)C1)C2 [Compound 78],,+,+,,NS,−,NS,NS,NS,NS,+
Nc1cccc2c1CN(CC13CC4CC(CC(C4)C1)C3)C2=O [Compound 79],,NS,NS,,NS,−,NS,NS,NS,NS,+
O=C1c2cccc([N+](=O)[O-])c2CN1C12CC3CC(CC(O)(C3)C1)C2 [Compound 87],,NS,NS,,NS,NS,NS,NS,NS,NS,NS
Nc1cccc2c1CN(C13CC4CC(CC(O)(C4)C1)C3)C2=O [Compound 88],,NS,NS,,NS,NS,NS,NS,NS,NS,NS
C[C@H]1[C@H](N2Cc3c(cccc3[N+](=O)[O-])C2=O)C[C@@H]2C[C@H]1C2(C)C [Compound 90],,+,+,,NS,NS,+,NS,+,+,+
C[C@@H]1[C@@H](N2Cc3c(cccc3[N+](=O)[O-])C2=O)C[C@H]2C[C@@H]1C2(C)C [Compound 92],,+,+,,−,−,NS,NS,+,+,+
CC1(C)[C@@H]2CC[C@]1(C)[C@H](N1Cc3c(cccc3[N+](=O)[O-])C1=O)C2 [Compound 94],,+,+,,,−,NS,NS,+,+,+
